Assay: mn = molality of the nth substance listed, in mol/kg
Conditions: 101 kPa, Liquid; for viscosity: Capillary tube (Ostwald / Ubbelohde) method; for speed of sound: Frequency=3 MHz, Linear variable-path acoustic interferometer; for mass density: Pycnometric method

N[C@@H](Cc1c[nH]cn1)C(=O)O [L-histidine] + O
Conditions | mass density, 308.15 K [kg/m3] | mass density, 313.15 K [kg/m3] | mass density, 318.15 K [kg/m3] | speed of sound, 308.15 K [m/s] | speed of sound, 313.15 K [m/s] | speed of sound, 318.15 K [m/s] | viscosity, 308.15 K [mPa·s] | viscosity, 313.15 K [mPa·s] | viscosity, 318.15 K [mPa·s]
m1 = 0.0199 | 995.23 | 993.41 | 991.41 | 1523.3 | 1529.9 | 1535.7 | 0.7255 | 0.6581 | 0.6018
m1 = 0.0399 | 996.39 | 994.58 | 992.58 | 1525.7 | 1531.9 | 1537.3 | 0.7309 | 0.6623 | 0.605
m1 = 0.0599 | 997.55 | 995.74 | 993.75 | 1527.1 | 1532.8 | 1538 | 0.7362 | 0.6665 | 0.6082
m1 = 0.0799 | 998.71 | 996.91 | 994.92 | 1527.6 | 1533 | 1537.6 | 0.7415 | 0.6705 | 0.6114
m1 = 0.1 | 999.87 | 998.08 | 996.1 | 1527.2 | 1532.2 | 1536.3 | 0.7464 | 0.6745 | 0.6148
m1 = 0.1199 | 1001.02 | 999.23 | 997.26 | 1525.5 | 1530.3 | 1534.1 | 0.7515 | 0.6788 | 0.6175
m1 = 0.14 | 1002.19 | 1000.4 | 998.44 | 1522.8 | 1527.3 | 1530.5 | 0.7568 | 0.683 | 0.6208
m1 = 0.16 | 1003.34 | 1001.56 | 999.6 | 1519.8 | 1523.7 | 1526.5 | 0.762 | 0.6869 | 0.6238
